{"source": "PubChem BioAssay AID1963850", "about": "(Molecular Pharmacology Branch, DTP, NCI, 2024);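 note: spheroids exposed to drugs for seven days before reading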;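 for viability, T/C: 100% = DMSO vehicle control viability in luminescence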", "system": "192522-019-R-J2-PDC complex tumor spheroid viability", "assay": "Anticancer human tumor 192522-019-R-J2-PDC patient-derived colon adenocarcinoma cell line growth inhibition [POLQ]", "conditions": "for IC50: curve of first compound; for viability, T/C: stronger effect = lower value", "method": "Multicellular complex tumor spheroid response to Polymerase (POL) inhibitors (novobiocin, ART-558, RP6685) in combination with a variety of drugs and investigational agents in selected tumor cell lines\nThe POL inhibitors (novobiocin, ART-558, and RP6685) were evaluated both individually and in combination with standard of care and investigational anticancer small molecules within a complex spheroid model of solid tumors. . Complex spheroids include a stromal component modeled by human endothelial cells (HUVEC) and fibroblasts modeled by human mesenchymal stem cells (MSCs). The concentration ranges selected for each drug and investigational agent were based upon clinically achievable concentrations if the clinical Cmax of the agent was known.\nCompounds. The drugs and investigational agents: novobiocin (NSC847541), ART-558 (NSC835418), RP-6685 (NSC848927), peposertib (NSC802822), ceralasertib (NSC780249), elimusertib (NSC800525), camonsertib (NSC841442), AZD-1390 (NSC803789), olaparib (NSC753686), talazoparib (NSC767125), rucaparib (NSC756644), sotorasib (NSC818433), MRTX-1133 (NSC836407), SN-38 (NSC673596), topotecan (NSC609699), epotoside (NSC141540), doxorubicin (NSC123127), gemcitabine (NSC613327), 5-fluorouracil (NSC19893), paclitaxel (NSC125973), vemurafenib (NSC761431), MSA-2 (NSC828583), SN-011 (NSC837082), adavosertib (NSC754352), prexasertib (NSC758257), carboplatin (NSC241240) and oxaliplatin (NSC266046), were obtained from the National Cancer Institute (NCI) Developmental Therapeutics Program Chemical Repository (21). The FDA-approved anticancer drug set is available from the Developmental Therapeutics Program at https://dtp.cancer.gov/organization/dscb/obtaining/. […] The stock solutions were prepared in dimethyl sulfoxide (DMSO, Sigma-Aldrich, St. Louis, MO, cat. D2650), except for the platinum compounds which were prepared in saline (Quality Biological, Gaithersburg, MD, cat. 114-055-101), at 800-fold the tested concentration and stored at -70 degrees C prior to their use. All drugs and investigational agents were tested over a range starting from a high concentration at or near the clinical Cmax and decreasing in half-log increments. If the clinical Cmax for an agent had not been determined, the highest concentration tested was 10 microM, except for SN-38, which was tested at a high concentration of 1 microM.\nCell Culture. All cells were maintained in an incubator at 37 degrees C and 5% CO2 with 95% humidity. The PDC lines were cultured according to standard operating procedures established by the NCI PDMR (https://pdmr.cancer.gov). Table 3 of the manuscript, lists the cell lines along with the number of the three cell types plated to form the mct-spheroids and media for tumor cell growth. After thawing, all PDC lines, except 997537-175-T-J1-PDC and 415267-285-R-J2-PDC, were cultured in Matrigel-coated flasks prepared with a working solution of 1X Ham's F-12 nutrient mix, without supplementation (Thermo Fisher Scientific, cat. 11765054), 100 U/mL penicillin-streptomycin (Thermo Fisher Scientific, cat. 15140122), and 2.5% Matrigel (Corning Inc., Corning, NY, cat. 354248) for the first three passages. The two PDC lines 997537-175-T-J1-PDC and 415267-285-R-J2-PDC were cultured on uncoated flasks. The 857933-349-R-J2-PDC line was cultured in 6C/Colon 1B media containing advanced DMEM/F-12 (Thermo Fisher Scientific, cat. 12634028), 10 mM HEPES (Thermo Fisher Scientific, cat. 15630080), 1X GlutaMAX supplement (Thermo Fisher Scientific, cat. 35050061), 0.1 mg/mL primocin (InvivoGen, San Diego, CA, cat. ant-pm-2), 10% defined fetal bovine serum, heat inactivated (HyClone Laboratories Inc., Logan, UT, cat. SH30070.03HI), 50% L-WRN conditioned media (ATCC, cat. CRL-3276), 1.25 mM N-Acetyl-L-cysteine (Sigma-Aldrich, cat. A9165), 10 mM nicotinamide (Sigma-Aldrich, cat. N0636), 1X B-27 supplement (Thermo Fisher Scientific, cat. 17504044), 1X N-2 supplement (Thermo Fisher Scientific, cat. […]"}
{"smiles": "COc1ccc([C@@H](O)c2cc(-c3ncnc4cc(N5CCOCC5)ccc34)c(F)cc2Cl)nn1", "note": "+ Cc1cccc(N(C)C(=O)C2C(O)CCN2c2nc(C)cc(C(F)(F)F)c2C#N)c1", "values": [{"measurement": "IC50", "setting": "second compound 0.0316 µM", "value": "> 10", "unit": "µM"}, {"measurement": "IC50", "setting": "second compound 0.1 µM", "value": "> 10", "unit": "µM"}, {"measurement": "IC50", "setting": "second compound 0.316 µM", "value": "> 10", "unit": "µM"}, {"measurement": "IC50", "setting": "second compound 1 µM", "value": "> 10", "unit": "µM"}, {"measurement": "IC50", "setting": "second compound 3.16 µM", "value": "> 10", "unit": "µM"}, {"measurement": "IC50", "setting": "second compound 10 µM", "value": "> 10", "unit": "µM"}, {"measurement": "viability, T/C", "setting": "second compound 0.0316 µM, first compound 0.0316 µM", "value": 102, "unit": "%"}, {"measurement": "viability, T/C", "setting": "second compound 0.0316 µM, first compound 0.1 µM", "value": 86, "unit": "%"}, {"measurement": "viability, T/C", "setting": "second compound 0.0316 µM, first compound 0.316 µM", "value": 103, "unit": "%"}, {"measurement": "viability, T/C", "setting": "second compound 0.0316 µM, first compound 1 µM", "value": 83.1, "unit": "%"}, {"measurement": "viability, T/C", "setting": "second compound 0.0316 µM, first compound 3.16 µM", "value": 85.9, "unit": "%"}, {"measurement": "viability, T/C", "setting": "second compound 0.0316 µM, first compound 10 µM", "value": 51.8, "unit": "%"}, {"measurement": "viability, T/C", "setting": "second compound 0.1 µM, first compound 0.0316 µM", "value": 100, "unit": "%"}, {"measurement": "viability, T/C", "setting": "second compound 0.1 µM, first compound 0.1 µM", "value": 87.5, "unit": "%"}, {"measurement": "viability, T/C", "setting": "second compound 0.1 µM, first compound 0.316 µM", "value": 90.1, "unit": "%"}, {"measurement": "viability, T/C", "setting": "second compound 0.1 µM, first compound 1 µM", "value": 90.8, "unit": "%"}, {"measurement": "viability, T/C", "setting": "second compound 0.1 µM, first compound 3.16 µM", "value": 78.9, "unit": "%"}, {"measurement": "viability, T/C", "setting": "second compound 0.1 µM, first compound 10 µM", "value": 61.8, "unit": "%"}, {"measurement": "viability, T/C", "setting": "second compound 0.316 µM, first compound 0.0316 µM", "value": 104, "unit": "%"}, {"measurement": "viability, T/C", "setting": "second compound 0.316 µM, first compound 0.1 µM", "value": 95.7, "unit": "%"}, {"measurement": "viability, T/C", "setting": "second compound 0.316 µM, first compound 0.316 µM", "value": 102, "unit": "%"}, {"measurement": "viability, T/C", "setting": "second compound 0.316 µM, first compound 1 µM", "value": 91.3, "unit": "%"}, {"measurement": "viability, T/C", "setting": "second compound 0.316 µM, first compound 3.16 µM", "value": 84.9, "unit": "%"}, {"measurement": "viability, T/C", "setting": "second compound 0.316 µM, first compound 10 µM", "value": 65, "unit": "%"}, {"measurement": "viability, T/C", "setting": "second compound 1 µM, first compound 0.0316 µM", "value": 98.9, "unit": "%"}, {"measurement": "viability, T/C", "setting": "second compound 1 µM, first compound 0.1 µM", "value": 94.7, "unit": "%"}, {"measurement": "viability, T/C", "setting": "second compound 1 µM, first compound 0.316 µM", "value": 93.7, "unit": "%"}, {"measurement": "viability, T/C", "setting": "second compound 1 µM, first compound 1 µM", "value": 97.4, "unit": "%"}, {"measurement": "viability, T/C", "setting": "second compound 1 µM, first compound 3.16 µM", "value": 89.9, "unit": "%"}, {"measurement": "viability, T/C", "setting": "second compound 1 µM, first compound 10 µM", "value": 62.4, "unit": "%"}, {"measurement": "viability, T/C", "setting": "second compound 3.16 µM, first compound 0.0316 µM", "value": 101, "unit": "%"}, {"measurement": "viability, T/C", "setting": "second compound 3.16 µM, first compound 0.1 µM", "value": 100, "unit": "%"}, {"measurement": "viability, T/C", "setting": "second compound 3.16 µM, first compound 0.316 µM", "value": 105, "unit": "%"}, {"measurement": "viability, T/C", "setting": "second compound 3.16 µM, first compound 1 µM", "value": 94.8, "unit": "%"}, {"measurement": "viability, T/C", "setting": "second compound 3.16 µM, first compound 3.16 µM", "value": 95.1, "unit": "%"}, {"measurement": "viability, T/C", "setting": "second compound 3.16 µM, first compound 10 µM", "value": 64.6, "unit": "%"}, {"measurement": "viability, T/C", "setting": "second compound 10 µM, first compound 0.0316 µM", "value": 106, "unit": "%"}, {"measurement": "viability, T/C", "setting": "second compound 10 µM, first compound 0.1 µM", "value": 96.1, "unit": "%"}, {"measurement": "viability, T/C", "setting": "second compound 10 µM, first compound 0.316 µM", "value": 104, "unit": "%"}, {"measurement": "viability, T/C", "setting": "second compound 10 µM, first compound 1 µM", "value": 99.6, "unit": "%"}, {"measurement": "viability, T/C", "setting": "second compound 10 µM, first compound 3.16 µM", "value": 89, "unit": "%"}, {"measurement": "viability, T/C", "setting": "second compound 10 µM, first compound 10 µM", "value": 52.6, "unit": "%"}]}
